According to patent US20230391778A1, “INDOLIN-2-ONE OR PYRROLO -PYRIDIN -2 -ONE DERIVATIVES” (Hoffmann-La Roche Inc., priority 2014, published 2023):

Each molecule was assayed against T1, mouse ENT-1 transporter (Mus musculus, UniProt Q9JIM1) (assay: Measure of adenosine transport activity (ENT1 adenosine uptake inhibition)). Settings: stable cells expressing mouse ENT-1, [2,8-3H]-adenosine 6 nM, 20 min.
T1 construct: expressed in transfected cells
T1 sequence (Q9JIM1 1-460): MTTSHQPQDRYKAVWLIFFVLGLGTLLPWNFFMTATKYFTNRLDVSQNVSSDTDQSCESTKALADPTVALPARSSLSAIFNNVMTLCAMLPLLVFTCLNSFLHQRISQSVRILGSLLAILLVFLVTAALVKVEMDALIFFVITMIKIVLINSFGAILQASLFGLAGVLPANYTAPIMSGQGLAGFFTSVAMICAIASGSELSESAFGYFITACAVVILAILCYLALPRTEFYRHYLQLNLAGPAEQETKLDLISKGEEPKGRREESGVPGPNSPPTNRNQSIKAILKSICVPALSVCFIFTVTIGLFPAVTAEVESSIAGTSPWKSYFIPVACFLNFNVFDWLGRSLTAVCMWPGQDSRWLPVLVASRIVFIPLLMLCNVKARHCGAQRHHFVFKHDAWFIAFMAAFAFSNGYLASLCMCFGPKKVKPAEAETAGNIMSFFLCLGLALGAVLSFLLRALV
Format: cell-based
Protocol: To measure adenosine transport activity of ENT-1 mammalian cells, stable cells expressing the mouse ENT-1 transporter were plated on day 1 in 96-well culture plates at the density of 60,000 cells/well, in complete DMEM/F12 medium supplemented with glutamax, 10% FBS and 10 μg/ml puromycin. On day 2, the medium was aspirated and the cells were washed twice with uptake buffer (10 mM Hepes-Tris, pH 7.4 containing 150 mM NaCl, 1 mM CaCl2), 2.5 mM KCl, 2.5 mM MgSO4, 10 mM D-glucose) (UB). For inhibition experiments, cells were then incubated at RT with various concentrations of compounds with 1% DMSO final. Non-specific uptake was defined in the presence of 10 μM S-(4-Nitrobenzyl)-6-thioinosine (NBTI, Sigma Cat #N2255).
The plates were then incubated for 20 min with gentle shaking and the reaction was stopped by aspiration of the mixture and washing (three times) with ice-cold UB. The cells were lysed by the addition of scintillation liquid, shaken 3 hours and the radioactivity in the cells was estimated using a microplates scintillation counter (TopCount NXT, Packard).

| IC50 [µM] | Molecule |
| --- | --- |
| 0.481 | Cc1ncc(-c2ccc3c(c2)N(c2ccc(C)[n+]([O-])n2)C(=O)C3(C)C)cn1 (single isomer, unassigned) [Example 106, 3-(3,3-dimethyl-6-(2-methylpyrimidin-5-yl)-2-oxoindolin-1-yl)-6-methylpyridazine 1-oxide] |
| 1.78 | Cc1ncc(-c2ccc3c(c2)N(c2cccnc2)C(=O)C3(C)C)cn1 [Example 3, 3,3-Dimethyl-6-(2-methylpyrimidin-5-yl)-1-(pyridin-3-yl)indolin-2-one] |
| 1.05 | Cc1ncc(-c2ccc3c(c2)N(c2cc(C)n(C)n2)C(=O)C3(C)C)cn1 [Example 5, 1-(1,5-Dimethyl-1H-pyrazol-3-yl)-3,3-dimethyl-6-(2-methylpyrimidin-5-yl)indolin-2-one] |
| 2.13 | Cc1cc(N2C(=O)C(C)(C)c3ccc(-c4cnc(C)nc4)cc32)ccn1 [Example 6, 3,3-Dimethyl-1-(2-methylpyridin-4-yl)-6-(2-methylpyrimidin-5-yl)indolin-2-one] |
| 1.54 | Cc1cc(N2C(=O)C(C)(C)c3ccc(-c4cnc(C)nc4)cc32)ncn1 [Example 7, 3,3-Dimethyl-1-(6-methylpyrimidin-4-yl)-6-(2-methylpyrimidin-5-yl)indolin-2-one] |
| 3.89 | Cc1ncc(-c2ccc3c(c2)N(c2cncnc2)C(=O)C3(C)C)cn1 [Example 8, 3,3-Dimethyl-6-(2-methylpyrimidin-5-yl)-1-(pyrimidin-5-yl)indolin-2-one] |
| 5.88 | Cc1ccc(-c2ccc3c(c2)N(c2cn(C)cn2)C(=O)C3(C)C)cn1 [Example 10, 3,3-Dimethyl-1-(1-methyl-1H-imidazol-4-yl)-6-(6-methylpyridin-3-yl)indolin-2-one] |
| 7.03 | Cc1cc(-c2ccc3c(c2)N(c2cn(C)cn2)C(=O)C3(C)C)ccn1 [Example 11, 3,3-Dimethyl-1-(1-methyl-1H-imidazol-4-yl)-6-(2-methylpyridin-4-yl)indolin-2-one] |
| 0.148 | Cc1ccc(N2C(=O)C(C)(C)c3ccc(-c4cnc(C)nc4)cc32)cn1 [Example 12, 3,3-Dimethyl-1-(6-methylpyridin-3-yl)-6-(2-methylpyrimidin-5-yl)indolin-2-one] |
| 1.15 | Cc1ccc(-c2ccc3c(c2)N(c2ccn(C)n2)C(=O)C3(C)C)cn1 [Example 13, 3,3-Dimethyl-1-(1-methyl-1H-pyrazol-3-yl)-6-(6-methylpyridin-3-yl)indolin-2-one] |
| 3.45 | Cc1ccc(-c2ccc3c(c2)N(c2ccnc(C)c2)C(=O)C3(C)C)cn1 [Example 19, 3,3-Dimethyl-6-(6-methylpyridin-3-yl)-1-(2-methylpyridin-4-yl)indolin-2-one] |
| 5.67 | Cc1cc(-c2ccc3c(c2)N(c2ccnc(C)c2)C(=O)C3(C)C)ccn1 [Example 20, 3,3-Dimethyl-1,6-bis(2-methylpyridin-4-yl)indolin-2-one] |
| 4.02 | Cc1cc(N2C(=O)C(C)(C)c3ccc(-n4cnc(C5CC5)c4)cc32)ccn1 [Example 21, 6-(4-Cyclopropylimidazol-1-yl)-3,3-dimethyl-1-(2-methyl-4-pyridyl)indolin-2-one] |
| 8.79 | Cc1cc(N2C(=O)C(C)(C)c3ccc(-c4cnccc4F)cc32)ccn1 [Example 24, 6-(4-Fluoropyridin-3-yl)-3,3-dimethyl-1-(2-methylpyridin-4-yl)indolin-2-one] |
| 0.355 | Cc1ncc(-c2ccc3c(c2)N(c2ccc(C)s2)C(=O)C3(C)C)cn1 [Example 27, 3,3-Dimethyl-6-(2-methylpyrimidin-5-yl)-1-(5-methylthiophen-2-yl)indolin-2-one] |
| 2.14 | Cc1ncc(-c2ccc3c(c2)N(c2ccc(C#N)nc2)C(=O)C3(C)C)cn1 [Example 30, 5-(3,3-Dimethyl-6-(2-methylpyrimidin-5-yl)-2-oxoindolin-1-yl)picolinonitrile] |
| 0.168 | Cc1ncc(-c2ccc3c(c2)N(c2ccc(CO)nc2)C(=O)C3(C)C)cn1 [Example 31, 1-(6-(Hydroxymethyl)pyridin-3-yl)-3,3-dimethyl-6-(2-methylpyrimidin-5-yl)indolin-2-one] |
| 0.059 | Cc1ncc(-c2ccc3c(c2)N(c2ccc(C4CC4)nc2)C(=O)C3(C)C)cn1 [Example 32, 1-(6-Cyclopropylpyridin-3-yl)-3,3-dimethyl-6-(2-methylpyrimidin-5-yl)indolin-2-one] |

| IC50 [µM] | Molecule |
| --- | --- |
| 1.22 | Cc1ccc(N2C(=O)C(C)(C)c3ccc(-n4cnc(C(C)C)c4)cc32)cn1 [Example 33, 6-(4-Isopropylimidazol-1-yl)-3,3-dimethyl-1-(6-methyl-3-pyridyl)indolin-2-one] |
| 2.46 | Cc1cc(N2C(=O)C(C)(C)c3ccc(-n4cnc(C(C)C)c4)cc32)ccn1 [Example 36, 6-(4-Isopropylimidazol-1-yl)-3,3-dimethyl-1-(2-methyl-4-pyridyl)indolin-2-one] |
| 0.426 | Cc1ncc(N2C(=O)C(C)(C)c3ccc(-n4cnc(C(C)C)c4)cc32)cn1 [Example 38, 6-(4-Isopropylimidazol-1-yl)-3,3-dimethyl-1-(2-methylpyrimidin-5-yl)indolin-2-one] |
| 1.4 | Cc1ncc(-c2ccc3c(c2)N(c2ccccn2)C(=O)C3(C)C)cn1 [Example 44, 3,3-Dimethyl-6-(2-methylpyrimidin-5-yl)-1-(pyridin-2-yl)indolin-2-one] |
| 3.53 | Cc1ncc(-c2ccc3c(c2)N(c2ccncc2F)C(=O)C3(C)C)cn1 [Example 46, 1-(3-Fluoropyridin-4-yl)-3,3-dimethyl-6-(2-methylpyrimidin-5-yl)indolin-2-one] |
| 7.19 | Cc1ncc(-c2ccc3c(c2)N(c2cc(F)ncc2C)C(=O)C3(C)C)cn1 [Example 47, 1-(2-Fluoro-5-methylpyridin-4-yl)-3,3-dimethyl-6-(2-methylpyrimidin-5-yl)indolin-2-one] |
| 1.85 | Cc1ncc(-c2ccc3c(c2)N(c2nnc(C)o2)C(=O)C3(C)C)cn1 [Example 51, 3,3-Dimethyl-1-(5-methyl-1,3,4-oxadiazol-2-yl)-6-(2-methylpyrimidin-5-yl)indolin-2-one] |
| 6.96 | Cc1ncc(-c2ccc3c(c2)N(c2ccncc2Cl)C(=O)C3(C)C)cn1 [Example 52, 1-(3-Chloropyridin-4-yl)-3,3-dimethyl-6-(2-methylpyrimidin-5-yl)indolin-2-one] |
| 2.41 | Cc1ncc(-c2ccc3c(c2)N(c2cc[nH]n2)C(=O)C3(C)C)cn1 [Example 55, 3,3-Dimethyl-6-(2-methylpyrimidin-5-yl)-1-(1H-pyrazol-3-yl)indolin-2-one] |
| 0.316 | Cc1ccc(N2C(=O)C(C)(C)c3ccc(-c4cnc(C)nc4)cc32)nc1 [Example 56, 3,3-Dimethyl-1-(5-methylpyridin-2-yl)-6-(2-methylpyrimidin-5-yl)indolin-2-one] |
| 0.027 | Cc1cnc(N2C(=O)C(C)(C)c3ccc(-c4cnc(C)nc4)cc32)cn1 [Example 57, 3,3-Dimethyl-1-(5-methylpyrazin-2-yl)-6-(2-methylpyrimidin-5-yl)indolin-2-one] |
| 0.657 | Cc1cncc(N2C(=O)C(C)(C)c3ccc(-c4cnc(C)nc4)cc32)c1 [Example 59, 3,3-Dimethyl-1-(5-methylpyridin-3-yl)-6-(2-methylpyrimidin-5-yl)indolin-2-one] |
| 3.78 | Cc1ccnc(N2C(=O)C(C)(C)c3ccc(-c4cnc(C)nc4)cc32)c1 [Example 60, 3,3-Dimethyl-1-(4-methylpyridin-2-yl)-6-(2-methylpyrimidin-5-yl)indolin-2-one] |
| 0.946 | Cc1cccc(N2C(=O)C(C)(C)c3ccc(-c4cnc(C)nc4)cc32)n1 [Example 61, 3,3-Dimethyl-1-(6-methylpyridin-2-yl)-6-(2-methylpyrimidin-5-yl)indolin-2-one] |
| 0.67 | Cc1cncc(N2C(=O)C(C)(C)c3ccc(-c4cnc(C)nc4)cc32)n1 [Example 63, 3,3-Dimethyl-1-(6-methylpyrazin-2-yl)-6-(2-methylpyrimidin-5-yl)indolin-2-one] |
| 5.09 | Cc1ccnc(N2C(=O)C(C)(C)c3ccc(-c4cnc(C)nc4)cc32)n1 [Example 64, 3,3-Dimethyl-1-(4-methylpyrimidin-2-yl)-6-(2-methylpyrimidin-5-yl)indolin-2-one] |
| 6.74 | Cc1ncc(-c2ccc3c(c2)N(c2cn(C)c(C)n2)C(=O)C3(C)C)cn1 [Example 65, 1-(1,2-Dimethyl-1H-imidazol-4-yl)-3,3-dimethyl-6-(2-methylpyrimidin-5-yl)indolin-2-one] |

| Molecule | IC50 [µM] |
| --- | --- |
| 3,3-dimethyl-6-(2-methylpyrimidin-5-yl)-1-(1-(2,2,2-trifluoroethyl)-1H-pyrazol-3-yl)indolin-2-one [Example 139] | 0.14 |
| 5-(3,3-dimethyl-1-(5-methylpyrimidin-2-yl)-2-oxoindolin-6-yl)-2-methylpyrimidine 1-oxide [Example 101] | 2.4 |
